Data set [1] deals with Neuropilin-1 (Homo sapiens) (UniProt O14786). Put plainly: Inhibition of [125I]-VEGF-A165 binding to NRP1 (unknown origin) transfected in HUVECs at 12 uM incubated for 2 hrs by plate reader analysis relative to control. To be noted: HUVEC. Format: cell-based.
Target sequence in this assay (O14786 whole entry): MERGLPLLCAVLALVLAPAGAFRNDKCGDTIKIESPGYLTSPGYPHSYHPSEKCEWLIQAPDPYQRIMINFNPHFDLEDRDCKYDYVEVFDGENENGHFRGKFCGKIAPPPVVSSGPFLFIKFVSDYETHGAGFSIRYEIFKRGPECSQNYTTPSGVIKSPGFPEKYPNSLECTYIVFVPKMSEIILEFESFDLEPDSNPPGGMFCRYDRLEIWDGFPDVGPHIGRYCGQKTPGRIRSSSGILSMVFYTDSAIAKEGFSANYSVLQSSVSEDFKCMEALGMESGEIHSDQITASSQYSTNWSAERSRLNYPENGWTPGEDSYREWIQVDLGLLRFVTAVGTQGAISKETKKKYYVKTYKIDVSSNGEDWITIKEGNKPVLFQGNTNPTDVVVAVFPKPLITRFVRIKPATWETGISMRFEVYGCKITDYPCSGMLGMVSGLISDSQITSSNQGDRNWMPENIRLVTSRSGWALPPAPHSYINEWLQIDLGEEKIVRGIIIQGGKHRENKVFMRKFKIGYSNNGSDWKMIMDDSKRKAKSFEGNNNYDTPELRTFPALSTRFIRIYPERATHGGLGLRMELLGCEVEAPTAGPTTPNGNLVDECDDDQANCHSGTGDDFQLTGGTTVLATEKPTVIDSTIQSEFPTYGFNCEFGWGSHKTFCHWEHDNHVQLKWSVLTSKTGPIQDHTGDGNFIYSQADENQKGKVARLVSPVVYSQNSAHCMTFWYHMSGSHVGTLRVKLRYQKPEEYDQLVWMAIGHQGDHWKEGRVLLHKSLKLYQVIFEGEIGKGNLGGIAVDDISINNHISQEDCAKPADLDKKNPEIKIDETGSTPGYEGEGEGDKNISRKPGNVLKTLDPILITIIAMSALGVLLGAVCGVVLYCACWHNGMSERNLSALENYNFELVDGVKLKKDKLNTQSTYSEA
Data set [2] concerns the target Tubulin (Homo sapiens) (UniProt P68371+Q9H4B7+P0DPH7+P68366+Q13509+Q71U36+P04350+Q3ZCM7+P07437+P68363+Q9BQE3+Q6PEY2+Q13885+Q9BVA1+Q9BUF5). Put plainly: Inhibition of tubulin polymerization (unknown origin) at 12 uM by spectrophotometric analysis relative to control. Format: protein-complex assay.
In data set [3] the target is Tubulin. Briefly: Inhibition of tubulin polymerization (unknown origin) by spectrophotometric analysis. In kind it is protein-complex assay, Homo sapiens.
In data set [4] the target is Neuropilin-1 (Homo sapiens) (UniProt O14786). Briefly: Inhibition of [125I]-VEGF-A165 binding to NRP1 (unknown origin) transfected in HUVECs incubated for 2 hrs by plate reader analysis. The note with it: HUVEC.
Target sequence in this assay (O14786 whole entry, looked up): as the sequence (O14786 whole entry) above
The test system of data set [5] is PC-3. Put plainly: Cytotoxicity against human PC-3 cells assessed as inhibition of cell viability incubated for 48 hrs by MTT assay. In kind it is functional, cell-based. To be noted: PC-3, 48 h. On the technique in general: Tetrazolium assays rely on reduction of a dye to a coloured formazan, in cell work by metabolically active cells.
Data set [6] can be described thus: Cytotoxicity against human PrEC cells assessed as inhibition of cell viability incubated for 48 hrs by MTT assay. Format: toxicity, cell-based.

The record followed here is ChEMBL document CHEMBL5375999, “Discovery of a Dual Tubulin and Neuropilin-1 (NRP1) Inhibitor with Potent In Vivo Anti-Tumor Activity via Pharmacophore-based Docking Screening, Structure Optimization, and Biological Evaluation” (J Med Chem, 2023).

Active and inactive are the calls of the source. The rule behind the calls is not given here.

For the compound `N=C(N)NCCC[C@H](NC(=O)c1ccccc1)C(=O)O`, the inhibition in data set [1] was determined as 79%.
`COc1cc(C(=O)/C=C/Nc2cccc(C)c2)cc(OC)c1OC`: the inhibition in data set [2] was determined as 45%.
The same measure, in the same setting: in the case of `COc1cc2c(cc1OC)C(c1cc(OC)c(OC)c(OC)c1)OCC2` (stereo not drawn) it was 69%.
In turn, `Cc1ccc(S(=O)(=O)N[C@@H](CCCNC(=N)N)C(=O)O)cc1` returned an inhibition in data set [1] of 82%.
Compound `COc1ccc(/C=C\c2cc(OC)c(OC)c(OC)c2)cc1NC(=O)CCCC(=O)N[C@@H](CCCNC(=N)N)C(=O)O` registered an IC50 in data set [3] of 5.57 µM.
Regarding `COc1cc(C2OC2C(=O)c2ccccc2)cc(OC)c1OC` (stereo not drawn), the inhibition in data set [2] is 15%.
For `N=C(N)NCCC[C@H](NC(=O)c1sccc1NS(=O)(=O)c1cccc2nsnc12)C(=O)O`, the inhibition in data set [1] stood at 87%.
In data set [2], `COc1cc(-c2cc(C(F)(F)F)n3ncc(C(=O)NCC(C)C)c3n2)cc(OC)c1OC` had an inhibition of 21%.
In turn, `COC(=O)[C@H](CCCNC(=N)N)NC(=O)/C=C/C(=O)Nc1cc(/C=C\c2cc(OC)c(OC)c(OC)c2)ccc1OC` yielded an IC50 in data set [3] of 4.14 µM. The inhibition entry in data set [4] is “inactive”.
Compound `COc1cc(C(=O)/C=C/c2c[nH]c3ccc(Br)cc23)cc(OC)c1OC` returned an inhibition in data set [2] of 63%.
On to `COc1ccc(/C=C\c2cc(OC)c(OC)c(OC)c2)cc1NC(=O)CCCCC(=O)N[C@@H](CCCNC(=N)N)C(=O)O`, for which the IC50 in data set [3] was 7.15 µM.
Consider `COc1cc(C(O)c2cc3c(cc2CO)OCO3)cc(OC)c1OC` (stereo not drawn), for which the inhibition was 47% in data set [1] and 64% in data set [2].
Consider `COc1ccc(/C=C\c2cc(OC)c(OC)c(OC)c2)cc1NC(=O)/C=C/C(=O)N[C@@H](CCCNC(=N)N)C(=O)O`, for which it took 1.53 µM to reach half-maximal inhibition in data set [3] (IC50).
`COC(=O)[C@H](CCCNC(=N)N)NC(=O)CCCCC(=O)Nc1cc(/C=C\c2cc(OC)c(OC)c(OC)c2)ccc1OC`: in data set [3], half-maximal inhibition (IC50) was put at 9.34 µM. The inhibition result in data set [4] was “inactive”.
Turning to `N=C(N)NCC(C[C@H](NCc1ccccc1)C(=O)O)[N+](=O)[O-]` (stereo partly drawn), the inhibition in data set [1] came out at 60%.
Turning to `COC(=O)[C@H](CCCNC(=N)N)NC(=O)CCCCCCC(=O)Nc1cc(/C=C\c2cc(OC)c(OC)c(OC)c2)ccc1OC`, the inhibition entry in data set [4] is “inactive”.
Regarding `COC(=O)[C@H](CCCNC(=N)N)NC(=O)CCCC(=O)Nc1cc(/C=C\c2cc(OC)c(OC)c(OC)c2)ccc1OC`, half-maximal inhibition in data set [3] (IC50) required 7.96 µM. Further, the inhibition result in data set [4] is “inactive”.
In data set [2], `COc1cc(O)c(/C=C/C(=O)c2cc(OC)c(OC)c(OC)c2)c(OC)c1` yielded an inhibition of 71%.
Still for that read-out and setting: in the case of `COc1ccc2c(c1)OC(c1cc(OC)c(OC)c(OC)c1)CC2=O` (stereo not drawn) it was 52%; in that of `COc1cc(-c2cc(-n3c(S)nc4ccccc4c3=O)[nH]n2)cc(OC)c1OC`, 28%.
For `COc1cc([C@@H]2CC(=O)c3cnc(N4CCN(CCO)CC4)nc3C2)cc(OC)c1OC`, in data set [2], the inhibition was determined as 48%.
With `COc1ccc(/C=C\c2cc(OC)c(OC)c(OC)c2)cc1O` [COMBRETASTATIN A4], the IC50 in data set [5] is 0.06 µM. Also, the inhibition entry in data set [4] is “inactive”. For the same compound, the IC50 at 48 h in data set [6] was found to be 0.08 µM.

One may read the inhibition as how much of the control response was suppressed. By IC50 is commonly meant the point on the concentration scale where inhibition reaches its midpoint.
